This is an account of results in patent US10435396B2, “2-substituted indazoles, methods for producing same, pharmaceutical preparations that contain same, and use of same to produce drugs” (Bayer Pharma Aktiengesellschaft, priority 2016, dated 2019).

What is called IC50 is the point on the concentration scale where inhibition reaches its midpoint. Low values mean greater potency in that assay, high ones weaker potency in that assay.

Test [1] has as its target human IRAK4 (Homo sapiens (Human), UniProt Q9NWZ3). The test can be described thus: IRAK4 kinase assay (IRAK4 TR-FRET assay). It is filed as biochemical. The settings on record: 1 mM ATP. How it is done:
The IRAK4-inhibitory activity of the substances according to the invention was measured in the IRAK4 TR-FRET assay (TR-FRET=Time Resolved Fluorescence Resonance Energy Transfer) described hereinafter.
Recombinant fusion protein from N-terminal GST (glutathione S-transferase) and human IRAK4, expressed in baculovirus-infected insect cells (Hi5, BTI-TN-5B1-4, cell line purchased from Invitrogen, catalogue No. B855-02) and purified via affinity chromatography, was used as enzyme. The substrate used for the kinase reaction was the biotinylated peptide biotin-Ahx-[…] (C-terminus in amide form) which can be purchased, for example, from Biosyntan GmbH (Berlin-Buch).
For the assay, 11 different concentrations in the range from 20 μM to 0.073 nM were prepared from a 2 mM solution of the test substance in DMSO. 50 nl of the respective solution were pipetted into a black low-volume 384-well microtitre plate (Greiner Bio-One, Frickenhausen, Germany), 2 μl of a solution of IRAK4 in assay buffer [50 mM HEPES pH 7.5, 5 mM MgCl2, 1.0 mM dithiothreitol, 30 μM activated sodium orthovanadate, 0.1% (w/v) of bovine gamma-globulin (BGG) 0.04% (v/v) nonidet-P40 (Sigma)] were added and the mixture was incubated for 15 min to allow prebinding of the substances to the enzyme prior to the kinase reaction. The kinase reaction was then started by addition of 3 μl of a solution of adenosine triphosphate (ATP, 1.67 mM=final concentration in 5 μl of assay volume: 1 mM) and peptide substrate (0.83 μM=final concentration in 5 μl assay volume: 0.5 μM) in assay buffer, and the resulting mixture was incubated at 22° C. for the reaction time of 45 min. The concentration of the IRAK4 was adjusted to the respective activity of the enzyme and set such that the assay was carried out in the linear range. Typical concentrations were in the order of about 0.2 nM. The reaction was stopped by addition of 5 μl of a solution of TR-FRET detection reagents [0.1 μM streptavidin-XL665 (Cisbio Bioassays; France, catalogue No. 610SAXLG)] and 1.5 nM anti-phosphoserine antibody [Merck Millipore, “STK Antibody”, catalogue No. 35-002] and 0.6 nM LANCE EU-W1024-labelled anti-mouse-IgG antibody (Perkin-Elmer, product No. AD0077; alternatively, it is possible to use a terbium cryptate-labelled anti-mouse-IgG antibody from Cisbio Bioassays) in aqueous EDTA solution (100 mM EDTA, 0.4% [w/v] bovine serum albumin [BSA] in 25 mM HEPES pH 7.5).
The resulting mixture was incubated at 22° C. for 1 h to allow formation of a complex of the biotinylated phosphorylated substrate and the detection reagents. The amount of the phosphorylated substrate was then evaluated by measuring the resonance energy transfer from europium chelate-labelled anti-mouse-IgG antibody to streptavidin-XL665. To this end, the fluorescence emissions at 620 nm and 665 nm were measured after excitation at 350 nm in a TR-FRET measuring instrument, for example a Rubystar (BMG Labtechnologies, Offenburg, Germany) or a Viewlux (Perkin-Elmer). The ratio of the emissions at 665 nm and 622 nm was taken as a measure of the amount of phosphorylated substrate. The data were normalized (enzyme reaction without test substance=0% inhibition; all other assay components but no enzyme=100% inhibition). Typically, the test substances were tested on the same microtitre plates at 11 different concentrations in the range from 20 μM to 0.073 nM (20 μM, 5.7 μM, 1.6 μM, 0.47 μM, 0.13 μM, 38 nM, 11 nM, 3.1 nM, 0.89 nM, 0.25 nM and 0.073 nM). The dilution series were prepared prior to the assay (2 mM to 7.3 nM in 100% DMSO) by serial dilutions. The IC50 values were calculated using a 4-parameter fit.

In test [2] the test system is human PBMCs. The test can be described thus: In vitro LPS-induced cytokine production in human PBMCs. It is filed as cell-based. As to conditions: 0.1 μg/ml LPS, 24 hours. How it is done: In Vitro LPS (Lipopolysaccharide)-Induced Cytokine Production in Human PBMCs (Peripheral Blood Mononuclear Cells)
The effect of the inventive compounds of the general formula (I) on induced cytokine production in human PBMCs was examined. Cytokine production was induced here by LPS, a TLR4 ligand, which leads to activation of the IRAK4-mediated signal path.
The human PBMCs were obtained from anti-coagulated human whole blood. To this end, 15 ml of Ficoll-Paque (Biochrom, Cat. No. L6115) were initially charged in Leucosep tubes and 20 ml of human blood were added. After centrifugation of the blood at 800 g for 15 min at room temperature, the plasma including the platelets was removed and discarded. The PBMCs were transferred into centrifugation tubes and made up with PBS (phosphate-buffered saline) (Gibco, Cat. No. 14190). The cell suspension was centrifuged at room temperature at 250 g for 10 min and the supernatant was discarded. The PBMCs were resuspended in complete medium (RPMI 1640, without L-glutamine (PAA, Cat. No. E15-039), 10% FCS; 50 U/ml penicillin, 50 μg/ml streptomycin (PAA, Cat. No. P11-010) and 1% L-glutamine (Sigma, Cat. No. G7513)).
The assay was also carried out in complete medium. The PBMCs were sown in 96-well plates at a cell density of 2.5×10^5 cells/well. The compounds according to the invention were subjected to serial dilution in a constant volume of 100% DMSO and used in the assay at 8 different concentrations in the range from 10 μM to 3 nM such that the final DMSO concentration was 0.4% DMSO. Prior to the actual stimulation, the cells were then pre-incubated therewith for 30 min. […] Cell viability was determined using the CellTiter-Glo luminescent assay (Promega, Cat. No. G7571 (G755/G756A)) in accordance with the manufacturer's instructions. The amount of secreted TNF-α in the cell culture supernatant was determined using the Human ProInflammatory 9-Plex Tissue Culture Kit (MSD, Cat. No. K15007B) in accordance with the instructions of the manufacturer. […]

Sequence of human IRAK4 (Q9NWZ3 whole entry): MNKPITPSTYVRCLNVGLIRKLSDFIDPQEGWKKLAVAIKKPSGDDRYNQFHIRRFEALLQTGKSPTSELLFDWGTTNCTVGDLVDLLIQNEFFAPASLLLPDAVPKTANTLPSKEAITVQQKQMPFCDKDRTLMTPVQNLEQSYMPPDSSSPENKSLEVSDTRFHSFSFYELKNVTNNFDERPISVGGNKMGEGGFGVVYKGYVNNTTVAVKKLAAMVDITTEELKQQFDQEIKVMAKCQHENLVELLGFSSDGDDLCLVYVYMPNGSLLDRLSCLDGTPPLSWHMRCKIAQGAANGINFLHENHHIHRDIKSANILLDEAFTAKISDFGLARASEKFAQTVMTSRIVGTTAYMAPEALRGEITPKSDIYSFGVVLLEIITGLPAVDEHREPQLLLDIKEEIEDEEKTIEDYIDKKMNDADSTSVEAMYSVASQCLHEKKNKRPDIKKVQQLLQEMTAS

As for `COc1cc2nn(C3CCN(CCC(C)(C)O)CC3)cc2cc1NC(=O)c1cccc(C(F)(F)F)n1` [Example 52, N-{2-[1-(3-Hydroxy-3-methylbutyl)piperidin-4-yl]-6-methoxy-2H-indazol-5-yl}-6-(trifluoromethyl)pyridine-2-carboxamide], 1 nM corresponded to half-maximal inhibition in test [1] (IC50). The “activity (secreted TNF-α, LPS-induced cytokine production in human PBMCs)” value in test [2] is at most 1 µM.
